Data published in patent publication US11414425B2 (priority 2018, dated 2022).

biological target: α5β3γ2 GABAA receptors (Homo sapiens, UniProt P18507+P31644); test: [3H]Ro15-1788 binding, membranes of Ltk cells stably expressing α5β3γ2 GABAA receptors; settings: ranges; inhibition of [3H]Ro15-1788 binding
Sequence (P31644 32-462): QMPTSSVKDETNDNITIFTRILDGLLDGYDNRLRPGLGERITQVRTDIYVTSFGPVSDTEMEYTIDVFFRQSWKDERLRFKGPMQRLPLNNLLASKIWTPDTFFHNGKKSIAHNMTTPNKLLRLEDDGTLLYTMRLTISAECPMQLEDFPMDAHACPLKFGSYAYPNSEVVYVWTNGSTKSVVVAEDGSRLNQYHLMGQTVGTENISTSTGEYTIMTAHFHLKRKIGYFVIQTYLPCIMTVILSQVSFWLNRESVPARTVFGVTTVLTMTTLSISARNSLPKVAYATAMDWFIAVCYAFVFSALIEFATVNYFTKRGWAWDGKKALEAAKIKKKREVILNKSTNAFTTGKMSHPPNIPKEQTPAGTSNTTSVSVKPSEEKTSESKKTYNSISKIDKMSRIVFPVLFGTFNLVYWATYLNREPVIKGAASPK
Sequence (P28472 26-473 partner): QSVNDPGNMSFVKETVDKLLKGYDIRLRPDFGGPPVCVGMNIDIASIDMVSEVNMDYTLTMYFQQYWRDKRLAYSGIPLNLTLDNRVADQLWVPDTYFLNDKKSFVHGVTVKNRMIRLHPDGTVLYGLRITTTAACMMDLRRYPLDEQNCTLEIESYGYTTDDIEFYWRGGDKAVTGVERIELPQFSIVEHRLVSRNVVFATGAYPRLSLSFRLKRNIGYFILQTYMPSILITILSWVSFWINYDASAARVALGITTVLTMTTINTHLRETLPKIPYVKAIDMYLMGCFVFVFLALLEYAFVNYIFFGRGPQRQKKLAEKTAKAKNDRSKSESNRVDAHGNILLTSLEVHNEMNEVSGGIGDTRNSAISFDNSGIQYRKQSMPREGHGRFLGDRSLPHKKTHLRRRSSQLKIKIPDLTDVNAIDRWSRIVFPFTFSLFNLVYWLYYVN
Sequence (P18507 40-475): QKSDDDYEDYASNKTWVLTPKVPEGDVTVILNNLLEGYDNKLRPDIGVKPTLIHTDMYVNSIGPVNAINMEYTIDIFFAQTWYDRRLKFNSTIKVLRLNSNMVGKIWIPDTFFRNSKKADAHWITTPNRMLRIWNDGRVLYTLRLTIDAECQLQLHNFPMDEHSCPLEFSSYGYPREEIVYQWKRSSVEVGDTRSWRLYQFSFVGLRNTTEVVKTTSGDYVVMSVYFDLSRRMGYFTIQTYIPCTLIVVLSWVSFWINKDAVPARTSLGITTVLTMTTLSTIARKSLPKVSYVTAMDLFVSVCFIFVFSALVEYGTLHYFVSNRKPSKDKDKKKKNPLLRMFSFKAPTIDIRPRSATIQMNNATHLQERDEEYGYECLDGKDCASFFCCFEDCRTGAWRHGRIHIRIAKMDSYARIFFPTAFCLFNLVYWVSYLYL

Compound | Ki
COc1ccc2c(c1)-n1nncc1Cc1c(C#Cc3cnc(C)[nH]3)ncn1-2 [Compound 668] | < 100 nM
COCc1nnc2n1Cc1c(C#Cc3ccc(OC)nn3)ncn1-c1ccc(Cl)cc1-2 [Compound 707] | < 100 nM
C#Cc1ccc2c(c1)-c1nnc(COC)n1Cc1c(C3=N[C@@H](c4ccccc4)CO3)ncn1-2 [Compound 301] | < 100 nM
COCc1nnc2n1Cc1c(C#Cc3cnc(C)s3)ncn1-c1ccc(Cl)cc1-2 [Compound 608] | < 100 nM
COc1ccc(C#Cc2ncn3c2Cc2cnnn2-c2cc(C(F)(F)F)ccc2-3)cn1 [Compound 553] | < 100 nM
COCc1nnc2n1Cc1c(C#Cc3cnc(OC)c(C)c3)ncn1-c1ccc(Cl)cc1-2 [Compound 698] | < 100 nM
Cc1noc(-c2ncn3c2Cc2cnnn2-c2cc(-c4ccccc4)ccc2-3)n1 [Compound 474] | < 100 nM
Clc1ccc2c(c1)-n1nncc1Cc1c(-c3cn(Cc4ccccc4)nn3)ncn1-2 [Compound 523] | < 100 nM
COCc1nnc2n1Cc1c(C#Cc3cnc4occc4c3)ncn1-c1ccc(OC)cc1-2 [Compound 674] | < 100 nM
COCc1nnc2n1Cc1c(C#Cc3ccc4[nH]ccc4c3)ncn1-c1ccc(OC)cc1-2 [Compound 715] | < 100 nM
COCc1nnc2n1Cc1c(C3=NC[C@@H](c4ccc(Cl)cc4)O3)ncn1-c1ccc(Cl)cc1-2 [Compound 717] | < 100 nM
COCc1nnc2n1Cc1c(C#Cc3cnc(C)s3)ncn1-c1ccc(OC)cc1-2 [Compound 597] | < 100 nM
CC(C)(C)C#Cc1ncn2c1Cc1cnnn1-c1cc(Cl)ccc1-2 [Compound 534] | < 100 nM
Clc1ccc2c(c1)-n1nncc1Cc1c(C3=NCC(c4ccccn4)O3)ncn1-2 (stereo not drawn) [Compound 627] | < 100 nM
COc1ccc2c(c1)-n1nncc1Cc1c(C3=N[C@H](c4ccc(F)cc4)CO3)ncn1-2 [Compound 519] | < 100 nM
COc1ccc(C#Cc2ncn3c2Cc2cnnn2-c2cc(OC(F)F)ccc2-3)cc1 [Compound 498] | < 100 nM
CC(C)(C)c1nc(-c2ncn3c2Cc2cnnn2-c2cc(Cl)ccc2-3)no1 [Compound 536] | < 100 nM
COCc1nnc2n1Cc1c(C#Cc3ccc(C)cn3)ncn1-c1ccc(OC)cc1-2 [Compound 562] | < 100 nM
COCc1nnn2c1Cc1c(C#CC(C)(C)C)ncn1-c1ccc(Cl)cc1-2 [Compound 640] | < 100 nM
COCc1nnc2n1Cc1c(C#Cc3cnc(C)n3C)ncn1-c1ccc(OC)cc1-2 [Compound 672] | < 100 nM
COCc1nnn2c1Cc1c(C#Cc3ccc(OC)nc3)ncn1-c1ccc(Cl)cc1-2 [Compound 633] | < 100 nM
COCc1nnc2n1Cc1c(C#Cc3ccc(=O)n(C)c3)ncn1-c1ccc(Cl)cc1-2 [Compound 677] | < 100 nM
CC(C)c1noc(-c2ncn3c2Cc2c(Cc4cccc(F)c4)nnn2-c2cc(Cl)ccc2-3)n1 [Compound 481] | < 100 nM
COCc1nnc2n1Cc1c(C#Cc3ccc(OC)cn3)ncn1-c1ccc(Cl)cc1-2 [Compound 528] | < 100 nM
FC(F)(F)c1ccc2c(c1)-n1nncc1Cc1c(C3=NC[C@@H](c4ccccc4)O3)ncn1-2 [Compound 624] | < 100 nM
COc1ccc2c(c1)-n1nncc1Cc1c(C#CC(C)(C)C)ncn1-2 [Compound 535] | < 100 nM
Clc1ccc2c(c1)-n1nncc1Cc1c(-c3noc(-c4ccccc4)n3)ncn1-2 [Compound 537] | < 100 nM
COc1ccc2c(c1)-n1nncc1Cc1c(C3=NC[C@H](c4ccccc4)O3)ncn1-2 [Compound 511] | < 100 nM

biological target: T1, GABAAα5 receptor (Rattus norvegicus, UniProt P18508+P19969); test: in vivo; type: in vivo, Long Evans rats; settings: 0.01-10 mg/kg, i.v.
T1 construct: occupancy in the hippocampus (a region of high GABAAα5 receptor density); from tissue; host or cells: rat brain in vivo: hippocampus versus cerebellum
T1 sequence (P19969 32-464): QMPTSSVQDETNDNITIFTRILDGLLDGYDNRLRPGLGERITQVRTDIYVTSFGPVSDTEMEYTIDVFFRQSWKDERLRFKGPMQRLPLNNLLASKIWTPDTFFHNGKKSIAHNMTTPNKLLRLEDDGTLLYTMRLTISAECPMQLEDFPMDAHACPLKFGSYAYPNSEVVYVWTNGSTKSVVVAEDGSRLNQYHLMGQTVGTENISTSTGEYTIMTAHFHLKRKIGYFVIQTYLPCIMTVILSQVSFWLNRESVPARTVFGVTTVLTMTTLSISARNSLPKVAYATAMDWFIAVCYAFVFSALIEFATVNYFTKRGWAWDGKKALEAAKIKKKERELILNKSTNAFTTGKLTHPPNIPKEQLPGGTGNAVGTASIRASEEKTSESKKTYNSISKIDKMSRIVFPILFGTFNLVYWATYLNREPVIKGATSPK
T1 sequence (P18508 39-466): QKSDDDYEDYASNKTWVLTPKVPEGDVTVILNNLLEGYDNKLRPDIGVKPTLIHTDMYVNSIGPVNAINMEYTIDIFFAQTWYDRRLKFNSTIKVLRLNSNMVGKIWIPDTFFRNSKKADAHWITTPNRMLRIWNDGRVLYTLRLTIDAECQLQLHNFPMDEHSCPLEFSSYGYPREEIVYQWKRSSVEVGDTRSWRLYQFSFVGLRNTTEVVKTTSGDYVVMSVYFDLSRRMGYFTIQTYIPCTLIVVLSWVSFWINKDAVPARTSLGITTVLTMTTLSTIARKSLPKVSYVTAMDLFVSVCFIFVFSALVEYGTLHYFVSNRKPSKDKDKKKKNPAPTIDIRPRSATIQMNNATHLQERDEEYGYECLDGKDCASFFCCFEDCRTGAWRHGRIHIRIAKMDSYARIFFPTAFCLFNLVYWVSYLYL
Text: Food and water were available ad libitum.

Compound | effect on binding of Ro 15-4513 in hippocampus | effect on binding/levels of Ro 15-4513 in cerebellum
CCOC(=O)c1ncn2c1Cn1c(C)nnc1-c1cc(OC)ccc1-2 [Ethyl 3-methoxy-7-methyl-9H-benzo[f]imidazo[1,5-a][1,2,4]tri] | blocked the binding of Ro154513 in the hippocampus | did not affect binding of Ro15413 in the cerebellum
CCOC(=O)c1ncn2c1Cn1c(C)nnc1-c1cc(OC)ccc1-2 [ethyl 3-methoxy-7-methyl-9H-benzo[f]imidazo[1,5-a][1,2,4]tri] | reduced Ro 15-4513 binding in hippocampus | without affecting cerebellum levels of Ro 15-4513

same assay, conditions: 10 mg/kg, i.v.

Compound | GABAA α5 receptor occupancy
CCOC(=O)c1ncn2c1Cn1c(C)nnc1-c1cc(OC)ccc1-2 [ethyl 3-methoxy-7-methyl-9H-benzo[f]imidazo[1,5-a][1,2,4]tri] | > 90%

same assay, conditions: tracer 1 μg/kg, i.v., after vehicle

Compound | levels of Ro 15-4513 in cerebellum | levels of Ro 15-4513 in hippocampus | levels of Ro 15-4513 in hippocampus compared with cerebellum
Ro 15-4513 | 0.36 ± 0.02 ng/g | 1.93 ± 0.05 ng/g | > 5 fold

biological target: T2, GABAA receptors (α5β2γ2) (Homo sapiens, UniProt P18507+P31644); test: Positive allosteric modulator activity: potentiation of EC20 GABA current in oocytes; type: cell-based; settings: read-out: GABA α5 Functional Data (potentiation of EC20 GABA); @ 100 nM; ranges
T2 construct: expressed in transfected cells
T2 sequence (P31644 32-462): as the sequence (P31644 32-462) above
T2 sequence (P47870 25-512, further chain): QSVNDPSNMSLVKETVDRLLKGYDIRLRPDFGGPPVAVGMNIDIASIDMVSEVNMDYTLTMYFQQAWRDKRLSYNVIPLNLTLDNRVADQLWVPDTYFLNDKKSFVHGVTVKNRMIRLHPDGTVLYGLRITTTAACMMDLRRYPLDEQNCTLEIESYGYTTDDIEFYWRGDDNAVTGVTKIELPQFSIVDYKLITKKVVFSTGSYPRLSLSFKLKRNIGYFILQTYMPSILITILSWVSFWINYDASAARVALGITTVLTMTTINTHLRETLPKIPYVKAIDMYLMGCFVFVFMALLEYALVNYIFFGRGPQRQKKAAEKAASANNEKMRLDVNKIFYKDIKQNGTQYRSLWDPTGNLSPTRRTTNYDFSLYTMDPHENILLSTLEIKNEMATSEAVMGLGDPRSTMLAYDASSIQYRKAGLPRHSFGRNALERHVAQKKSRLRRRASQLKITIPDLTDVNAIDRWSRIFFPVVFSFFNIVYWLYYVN
T2 sequence (P18507 40-475): as the sequence (P18507 40-475) above
Summary of the method: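 Oocytes were injected with 1 ng cDNA (α5:β2:γ2 1:1:10 by weight) and recorded on day 2 (day 3 with 20% less cDNA) by two-electrode clamp (3M KCl electrodes, 0.5-3 megaohms) under MBS superfusion at 3 mL/min. Potentiation (%) is Itest divided by IGABA. Each oocyte received one concentration only.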

Compound | activation at 0.1 µM
COc1ccc2c(c1)-n1nncc1Cc1c(C#Cc3cnc(C)[nH]3)ncn1-2 [Compound 668] | > 50%
COCc1nnc2n1Cc1c(C#Cc3ccc(OC)nn3)ncn1-c1ccc(Cl)cc1-2 [Compound 707] | > 50%
C#Cc1ccc2c(c1)-c1nnc(COC)n1Cc1c(C3=N[C@@H](c4ccccc4)CO3)ncn1-2 [Compound 301] | 5 to 20%
COCc1nnc2n1Cc1c(C#Cc3cnc(C)s3)ncn1-c1ccc(Cl)cc1-2 [Compound 608] | 20 to 50%
COc1ccc(C#Cc2ncn3c2Cc2cnnn2-c2cc(C(F)(F)F)ccc2-3)cn1 [Compound 553] | 5 to 20%
COCc1nnc2n1Cc1c(C#Cc3cnc(OC)c(C)c3)ncn1-c1ccc(Cl)cc1-2 [Compound 698] | 5 to 20%
Cc1noc(-c2ncn3c2Cc2cnnn2-c2cc(-c4ccccc4)ccc2-3)n1 [Compound 474] | 5 to 20%
Clc1ccc2c(c1)-n1nncc1Cc1c(-c3cn(Cc4ccccc4)nn3)ncn1-2 [Compound 523] | 5 to 20%
COCc1nnc2n1Cc1c(C#Cc3cnc4occc4c3)ncn1-c1ccc(OC)cc1-2 [Compound 674] | 5 to 20%
COCc1nnc2n1Cc1c(C#Cc3ccc4[nH]ccc4c3)ncn1-c1ccc(OC)cc1-2 [Compound 715] | 20 to 50%
COCc1nnc2n1Cc1c(C3=NC[C@@H](c4ccc(Cl)cc4)O3)ncn1-c1ccc(Cl)cc1-2 [Compound 717] | > 50%
COCc1nnc2n1Cc1c(C#Cc3cnc(C)s3)ncn1-c1ccc(OC)cc1-2 [Compound 597] | > 50%
CC(C)(C)C#Cc1ncn2c1Cc1cnnn1-c1cc(Cl)ccc1-2 [Compound 534] | 5 to 20%
Clc1ccc2c(c1)-n1nncc1Cc1c(C3=NCC(c4ccccn4)O3)ncn1-2 (stereo not drawn) [Compound 627] | 20 to 50%
COc1ccc2c(c1)-n1nncc1Cc1c(C3=N[C@H](c4ccc(F)cc4)CO3)ncn1-2 [Compound 519] | 20 to 50%
COc1ccc(C#Cc2ncn3c2Cc2cnnn2-c2cc(OC(F)F)ccc2-3)cc1 [Compound 498] | 5 to 20%
CC(C)(C)c1nc(-c2ncn3c2Cc2cnnn2-c2cc(Cl)ccc2-3)no1 [Compound 536] | 20 to 50%
COCc1nnc2n1Cc1c(C#Cc3ccc(C)cn3)ncn1-c1ccc(OC)cc1-2 [Compound 562] | 20 to 50%
COCc1nnn2c1Cc1c(C#CC(C)(C)C)ncn1-c1ccc(Cl)cc1-2 [Compound 640] | 20 to 50%
COCc1nnc2n1Cc1c(C#Cc3cnc(C)n3C)ncn1-c1ccc(OC)cc1-2 [Compound 672] | > 50%
COCc1nnn2c1Cc1c(C#Cc3ccc(OC)nc3)ncn1-c1ccc(Cl)cc1-2 [Compound 633] | 20 to 50%
COCc1nnc2n1Cc1c(C#Cc3ccc(=O)n(C)c3)ncn1-c1ccc(Cl)cc1-2 [Compound 677] | 5 to 20%
CC(C)c1noc(-c2ncn3c2Cc2c(Cc4cccc(F)c4)nnn2-c2cc(Cl)ccc2-3)n1 [Compound 481] | 5 to 20%
COCc1nnc2n1Cc1c(C#Cc3ccc(OC)cn3)ncn1-c1ccc(Cl)cc1-2 [Compound 528] | > 50%
FC(F)(F)c1ccc2c(c1)-n1nncc1Cc1c(C3=NC[C@@H](c4ccccc4)O3)ncn1-2 [Compound 624] | 5 to 20%
COc1ccc2c(c1)-n1nncc1Cc1c(C#CC(C)(C)C)ncn1-2 [Compound 535] | 5 to 20%
Clc1ccc2c(c1)-n1nncc1Cc1c(-c3noc(-c4ccccc4)n3)ncn1-2 [Compound 537] | 20 to 50%
COc1ccc2c(c1)-n1nncc1Cc1c(C3=NC[C@H](c4ccccc4)O3)ncn1-2 [Compound 511] | 5 to 20%

tested on: aged-impaired (AI) rats; test: Radial Arm Maze (RAM) behavioral task, spatial memory retention; type: in vivo, rat; settings: 3 mg/kg; four-hour delay RAM; t(7)=4.13, p=0.004, or t(7)=3.08, p=0.018
Text: A Radial Arm Maze (RAM) behavioral task is one example of a cognitive test, specifically testing spacial memory (Chappell et al. Neuropharmacology 37: 481-487, 1998). The RAM apparatus consists of, e.g., eight equidistantly spaced arms. A maze arm projects from each facet of a center platform. A food well is located at the distal end of each arm. Food is used as a reward. Blocks can be positioned to prevent entry to any arm. Numerous extra maze cues surrounding the apparatus may also be provided. After habituation and training phases, spatial memory of the subjects may be tested in the RAM under control or test compound-treated conditions. As a part of the test, subjects are pretreated before trials with a vehicle control or one of a range of dosages of the test compound. At the beginning of each trial, a subset of the arms of the eight-arm maze is blocked. Subjects are allowed to obtain food on the unblocked arms to which access is permitted during this initial “information phase” of the trial. Subjects are then removed from the maze for a delay period, e.g., a 60 second delay, a 15 minute delay, a one-hour delay, a two-hour delay, a six hour delay, a 24 hour delay, or longer) between the information phase and the subsequent “retention test,” during which the barriers on the maze are removed, thus allowing access to all eight arms. […] The identity and configuration of the blocked arms vary across trials. The number of “errors” the subjects make during the retention test phase is tracked. An error occurs in the trial if the subjects entered an arm from which food had already been retrieved in the pre-delay component of the trial, or if it re-visits an arm in the post-delay session that had already been visited. A fewer number of errors would indicate better spatial memory. The number of errors made by the test subject, under various test compound treatment regimes, can then be compared for efficacy of the test compound in treating cognitive impairment associated with CNS disorders.
The effects of methyl 3,5-diphenylpyridazine-4-carboxylate on the in vivo spatial memory retention of aged-impaired (AI) rats were assessed in a Radial Arm Maze (RAM) behavioral task using vehicle control and four different dosage levels of methyl 3,5-diphenylpyridazine-4-carboxylate (0.1 mg/kg, 0.3 mg/kg, 1 mg/kg and 3 mg/kg, ip). RAM behavioral tasks were performed on eight AI rats. All five treatment conditions (vehicle and four dosage levels) were tested on all eight rats.
The RAM apparatus used consisted of eight equidistantly-spaced arms. An elevated maze arm (7 cm width×75 cm length) projected from each facet of an octagonal center platform (30 cm diameter, 51.5 cm height). Clear side walls on the arms were 10 cm high and were angled at 65° to form a trough. […]

Compound | memory performance relative to vehicle control treatment
CCOC(=O)c1ncn2c1Cn1c(C)nnc1-c1cc(OC)ccc1-2 [ethyl 3-methoxy-7-methyl-9H-benzo[f]imidazo[1,5-a][1,2,4]tri] | significantly improved memory performance

same assay, conditions: 10 mg/kg; four-hour delay RAM; t(7)=2.82, p=0.026

Compound | memory performance relative to vehicle control treatment
CCOC(=O)c1ncn2c1Cn1c(C)nnc1-c1cc(OC)ccc1-2 [ethyl 3-methoxy-7-methyl-9H-benzo[f]imidazo[1,5-a][1,2,4]tri] | significantly improved memory performance
